The target of assay [1] is cloned human P2Y1 receptors (Homo sapiens (Human), UniProt P47900). The experiment in a line: Binding Assay B: Scintillation Proximity Assay (SPA) for P2Y1 binding. The conditions noted are these: SPA, [33P] 2MeS-ADP displacement; read-out: P2Y1 Ki (nM) using binding assay B. A digest of the protocol:
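Membranes with ~15 fmol receptor (1.7 μg total protein) incubated with 0.3 nM [^33P]-labelled radioligand for 1 h at room temperature to completion. After centrifugation and removal of aqueous phase, bound radioactivity read by scintillation proximity; inhibition of radioligand binding measured.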

The test system of assay [2] is human platelet rich plasma (PRP). The experiment in a line: ADP induced platelet aggregation assay. To be noted: Homo sapiens, Platelet, read-out: PA IC50 (μM) @ 10 μM ADP, platelet aggregation induced by 10 μM ADP, human PRP.
Protocol: The ability of P2Y1 antagonists covered in the present invention to inhibit platelet aggregation induced by 10 μM ADP was tested using human platelet rich plasma (PRP) as described in Platelet Protocols: Research and Clinical Laboratory Procedures (White, M. M. et al., Academic Press (1999)). Human blood was collected in 30 μM (final concentration in blood) argatroban (GSK) as the anticoagulant at a ratio of 1 ml per 9 ml of blood. The PRP was isolated by centrifugation at 170 g for 12 minutes. The platelet poor plasma (PPP) was used as the blank for optical aggregometry. Compounds of the present invention in DMSO solution was preincubated with 250 μl PRP at 37° C. for 1 minute with stirring speed of 1000 rpm. Aggregation was initiated by addition of 2.5 μl of 1 mM ADP (Chrono-log, Havertown, Pa.) for a final ADP concentration of 10 μM. Platelet aggregation was monitored using Optical Aggregometer (Chrono-log, Havertown, Pa.) and the area under the curve (AUC) at 5 minute was measured. IC50 was calculated using vehicle control as 0% inhibition.

Where a name gives a salt, the structure may show the parent alone.

cloned human P2Y1 receptors, sequence (P47900 whole entry): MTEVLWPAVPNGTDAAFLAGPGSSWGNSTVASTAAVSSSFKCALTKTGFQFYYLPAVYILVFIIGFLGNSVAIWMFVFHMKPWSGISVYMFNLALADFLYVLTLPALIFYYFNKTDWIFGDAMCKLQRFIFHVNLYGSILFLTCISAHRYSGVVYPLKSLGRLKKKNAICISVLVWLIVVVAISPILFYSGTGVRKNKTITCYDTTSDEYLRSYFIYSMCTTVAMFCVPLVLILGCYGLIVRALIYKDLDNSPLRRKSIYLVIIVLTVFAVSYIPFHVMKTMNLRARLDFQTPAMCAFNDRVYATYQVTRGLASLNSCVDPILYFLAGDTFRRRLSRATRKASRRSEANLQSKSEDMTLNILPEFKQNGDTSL

Consider `COC(=O)c1ccc2nc(NC(=O)Nc3ccccc3N3CC4(CCN(CC(C)(C)C)CC4)c4c(Cl)ccc(O)c43)sc2c1` [Example 41, Methyl 2-(3-(2-(4-Chloro-7-hydroxy-1′-neopentylspiro[indoline-3,4′-piperidine]-1-yl)phenyl)ureido)benzo [d]thiazole-6-carboxylate], for which, in assay [1], the Ki (as a rule, the equilibrium dissociation constant of an inhibitor or competing ligand from its target) turned out to be 7.2 nM. Moreover, the half-maximal inhibitory concentration (IC50) (in general, the midpoint of a concentration-inhibition curve) in assay [2] amounted to 0.7 µM.
On the same counts, the results for `CCSc1nsc(NC(=O)Nc2ccccc2N2CC3(CCN(CC(C)(C)C)CC3)c3c(Cl)ccc(O)c32)n1` [Example 44, 1-(2-(4-Chloro-7-hydroxy-1′-neopentylspiro[indoline-3,4′-piperidine]-1-yl)phenyl)-3-(3-(ethylthio)-1,2,4-thiadiazol-5-yl)urea] are 7.3 nM and 0.1 µM.
`CC(C)(C)CN1CCC2(CC1)CN(c1ccccc1NC(=O)Nc1nc3c(s1)CCCC3)c1c(O)ccc(Cl)c12` [Example 45, 1-(2-(4-Chloro-7-hydroxy-1′-neopentylspiro[indoline-3,4′-piperidine]-1-yl)phenyl)-3-(4,5,6,7-tetrahydrobenzo[d]thiazol-2-yl)urea, TFA]: the Ki in assay [1] stood at 9.5 nM. Moreover, in assay [2], the IC50 amounted to 0.3 µM.
As to `CC(C)(C)CN1CCC2(CC1)CN(c1ccccc1NC(=O)Nc1nc3c(s1)CCC3)c1c(O)ccc(Cl)c12` [Example 46, 1-(2-(4-Chloro-7-hydroxy-1′-neopentylspiro[indoline-3,4′-piperidine]-1-yl)phenyl)-3-(5,6-dihydro-4H-cyclopenta[d]thiazol-2-yl)urea, TFA], in assay [1], the inhibitory constant (Ki) worked out at 6.2 nM. For the same compound, the IC50 in assay [2] was 0.3 µM.
Take `COc1ccc2nc(NC(=O)Nc3ccccc3N3CC4(CCN(CC(C)(C)C)CC4)c4c(Cl)ccc(O)c43)sc2c1` [Example 47, 1-(2-(4-Chloro-7-hydroxy-1′-neopentylspiro[indoline-3,4′-piperidine]-1-yl)phenyl)-3-(6-methoxybenzo[d]thiazol-2-yl)urea, TFA]: in assay [1], the inhibition constant (Ki) amounted to 9.4 nM. The IC50 in assay [2] stood at 0.3 µM.
On the same counts, the results for `CC(C)(C)CN1CCC2(CC1)CN(c1ccccc1NC(=O)Nc1nc3c(s1)COCC3)c1c(O)ccc(Cl)c12` [Example 48, 1-(2-(4-Chloro-7-hydroxy-1′-neopentylspiro[indoline-3,4′-piperidine]-1-yl)phenyl)-3-(6,7-dihydro-4H-pyrano[4,3-d]thiazol-2-yl)urea, TFA] are 8 nM and 0.4 µM.
As to `CC(C)(C)CN1CCC2(CC1)CN(c1ccccc1NC(=O)Nc1nc3c(s1)CSCC3)c1c(O)ccc(Cl)c12` [Example 49, 1-(2-(4-Chloro-7-hydroxy-1′-neopentylspiro[indoline-3,4′-piperidine]-1-yl)phenyl)-3-(6,7-dihydro-4H-thiopyrano[4,3-d]thiazol-2-yl)urea, TFA], in assay [1], the Ki is 6.5 nM. Further, the half-maximal inhibitory concentration (IC50) in assay [2] came out at 0.3 µM.
For `COc1nsc(NC(=O)Nc2ccccc2N2CC3(CCN(CC(C)(C)C)CC3)c3c(Cl)ccc(O)c32)n1` [Example 50, 1-(2-(4-Chloro-7-hydroxy-1′-neopentylspiro[indoline-3,4′-piperidine]-1-yl)phenyl)-3-(3-methoxy-1,2,4-thiadiazol-5-yl)urea, TFA], in that order: 6.8 nM and 0.3 µM.
For the compound `CC(C)(C)CN1CCC2(CC1)CN(c1ccccc1NC(=O)Nc1nc3ccc([N+](=O)[O-])cc3s1)c1c(O)ccc(Cl)c12` [Example 51, 1-(2-(4-Chloro-7-hydroxy-1′-neopentylspiro[indoline-3,4′-piperidine]-1-yl)phenyl)-3-(6-nitrobenzo[d]thiazol-2-yl)urea, TFA], the Ki in assay [1] is 10.8 nM. The IC50 in assay [2] was found to be 0.5 µM.
Take `CC(C)(C)CN1CCC2(CC1)CN(c1ccccc1NC(=O)Nc1nc3ccc(OC(F)(F)F)cc3s1)c1c(O)ccc(Cl)c12` [Example 52, 1-(2-(4-Chloro-7-hydroxy-1′-neopentylspiro[indoline-3,4′-piperidine]-1-yl)phenyl)-3-(6-(trifluoromethoxy)benzo[d]thiazol-2-yl)urea, TFA]: the Ki in assay [1] was 9.2 nM. Also, in assay [2], the half-maximal inhibitory concentration (IC50) was determined as 0.3 µM.
On the same counts, the results for `CC(C)(C)CN1CCC2(CC1)CN(c1ccccc1NC(=O)Nc1nc3ccccc3s1)c1c(O)ccc(Cl)c12` [Example 53, 1-(Benzo[d]thiazol-2-yl)-3-(2-(4-chloro-7-hydroxy-1′-neopentylspiro[indoline-3,4′-piperidine]-1-yl)phenyl)urea, TFA] are 7.5 nM and 0.5 µM.
On the same counts, the results for `CC(C)(C)CN1CCC2(CC1)CN(c1ccccc1NC(=O)Nc1ccc(F)cc1F)c1c(O)ccc(Cl)c12` [Example 54, 1-(2-(4-Chloro-7-hydroxy-1′-neopentylspiro[indoline-3,4′-piperidine]-1-yl)phenyl)-3-(2,4-difluorophenyl)urea] are 9.6 nM and 1.1 µM.
For `CC(C)(C)CN1CCC2(CC1)CN(c1ccccc1NC(=O)Nc1ccc(C(C)(C)C)cc1)c1c(O)ccc(Cl)c12` [Example 55, 1-(4-tert-Butylphenyl)-3-(2-(4-chloro-7-hydroxy-1′-neopentylspiro[indoline-3,4′-piperidine]-1-yl)phenyl)urea], in that order: 9.7 nM and 1 µM.
For `Cc1ccc(NC(=O)Nc2ccccc2N2CC3(CCN(CC(C)(C)C)CC3)c3c(Cl)ccc(O)c32)cc1F` [Example 56, 1-(2-(4-Chloro-7-hydroxy-1′-neopentylspiro[indoline-3,4′-piperidine]-1-yl)phenyl)-3-(3-fluoro-4-methylphenyl)urea], in assay [1], the Ki worked out at 6.4 nM. Moreover, the 50% inhibitory concentration (IC50) in assay [2] came to 0.5 µM.
Consider `CC(C)CN1CCCC1c1ccc(NC(=O)Nc2ccccc2N2CC3(CCN(CC(C)(C)C)CC3)c3c(Cl)ccc(O)c32)cc1` (centres unmarked) [Example 57, 1-(2-(4-Chloro-7-hydroxy-1′-neopentylspiro[indoline-3,4′-piperidine]-1-yl)phenyl)-3-(4-(1-isobutylpyrrolidin-2-yl)phenyl)urea], for which the Ki in assay [1] was determined as 10.4 nM. Also, in assay [2], the IC50 amounted to 0.2 µM.
On the same counts, the results for `CC(C)(C)CN1CCC2(CC1)CN(c1ccccc1NC(=O)Nc1ccc(C3CCCN3CC(C)(C)C)cc1)c1c(O)ccc(Cl)c12` (centres unmarked) [Example 58, 1-(2-(4-Chloro-7-hydroxy-1′-neopentylspiro[indoline-3,4′-piperidine]-1-yl)phenyl)-3-(4-(1-neopentylpyrrolidin-2-yl)phenyl)urea] are 12.4 nM and 0.2 µM.
For `CC(C)(C)CN1CCC2(CC1)CN(c1ccccc1NC(=O)Nc1ccc(OC(F)(F)F)cc1)c1c(O)ccc(Cl)c12` [Example 59, 1-(2-(4-Chloro-7-hydroxy-1′-neopentylspiro[indoline-3,4′-piperidine]-1-yl)phenyl)-3-(4-(trifluoromethoxy)phenyl)urea], in that order: 7.2 nM and 0.4 µM.
With `CC(C)(C)CN1CCC2(CC1)CN(c1ccccc1NC(=O)Nc1ccc(C(F)(F)F)cc1)c1c(O)ccc(Cl)c12` [Example 60, 1-(2-(4-Chloro-7-hydroxy-1′-neopentylspiro[indoline-3,4′-piperidin]-1-yl)phenyl)-3-(4-(trifluoromethyl)phenyl)urea], the inhibition constant Ki in assay [1] is 6.4 nM. The IC50 in assay [2] amounted to 0.4 µM.
For the compound `CC(C)(C)CN1CCC2(CC1)CN(c1ccccc1NC(=O)Nc1csc(Cl)n1)c1c(O)ccc(Cl)c12` [Example 61, 1-(2-(4-Chloro-7-hydroxy-1′-neopentylspiro[indoline-3,4′-piperidin]-1-yl)phenyl)-3-(2-chlorothiazol-4-yl)urea], the inhibition constant Ki in assay [1] came to 5.8 nM. In addition, the IC50 in assay [2] stood at 0.2 µM.
In the case of `CC(C)c1nc(NC(=O)Nc2ccccc2N2CC3(CCN(CC(C)(C)C)CC3)c3c(Cl)ccc(O)c32)cs1` [Example 62, 1-(2-(4-Chloro-7-hydroxy-1′-neopentylspiro[indoline-3,4′-piperidine]-1-yl)phenyl)-3-(2-isopropylthiazol-4-yl)urea], the Ki in assay [1] was 13 nM. Also, the IC50 in assay [2] is 0.8 µM.
On to `CC(C)(C)CN1CCC2(CC1)CN(c1ccccc1NC(=O)Nc1csc(C(F)(F)F)n1)c1c(O)ccc(Cl)c12` [Example 63, 1-(2-(4-Chloro-7-hydroxy-1′-neopentylspiro[indoline-3,4′-piperidine]-1-yl)phenyl)-3-(2-(trifluoromethyl)thiazol-4-yl)urea], for which the Ki in assay [1] came out at 4.9 nM. Moreover, in assay [2], the IC50 stood at 0.4 µM.
For `CC(C)CN1CCC2(CC1)CN(c1ccccc1NC(=O)Nc1ccc(C(F)(F)F)cc1)c1c(O)ccc(Cl)c12` [Example 64, 1-(2-(4-Chloro-7-hydroxy-1′-isobutylspiro[indoline-3,4′-piperidine]-1-yl)phenyl)-3-(4-(trifluoromethyl)phenyl)urea], the inhibition constant Ki in assay [1] is 6.5 nM. Moreover, the IC50 in assay [2] amounted to 1 µM.
Regarding `CC(C)CN1CCC2(CC1)CN(c1ccccc1NC(=O)Nc1nc3ccc(Cl)cc3s1)c1c(O)ccc(Cl)c12` [Example 65, 1-(2-(4-Chloro-7-hydroxy-1′-isobutylspiro[indoline-3,4′-piperidine]-1-yl)phenyl)-3-(6-chlorobenzo[d]thiazol-2-yl)urea], the Ki in assay [1] worked out at 7.8 nM. Further, in assay [2], the IC50 was found to be 0.4 µM.
On the same counts, the results for `CC(C)(C)CN1CCC2(CC1)CN(c1ncccc1NC(=O)Nc1nc3ccc(F)cc3s1)c1c(O)ccc(Cl)c12` [Example 66, 1-(2-(4-Chloro-7-hydroxy-1′-neopentylspiro[indoline-3,4′-piperidine]-1-yl)pyridin-3-yl)-3-(6-fluorobenzo[d]thiazol-2-yl)urea] are 25.8 nM and 1.2 µM.
Take `CC(C)(C)CN1CCC2(CC1)CN(c1cc(F)ccc1NC(=O)Nc1nc3ccc(F)cc3s1)c1c(O)ccc(Cl)c12` [Example 67, 1-(2-(4-Chloro-7-hydroxy-1′-neoopentylspiro[indoline-3,4′-piperidine]-1-yl)-4-fluorophenyl)-3-(6-fluorobenzo[d]thiazol-2-yl)urea]: the Ki in assay [1] came out at 22.2 nM. Further, in assay [2], the half-inhibitory concentration (IC50) is 0.3 µM.

For the origin of these results see patent US9428504B2, “7-hydroxy-spiropipiperidine indolinyl antagonists of P2Y1 receptor” (BRISTOL-MYERS SQUIBB COMPANY, priority 2012, dated 2016).
